Source: US8940310B2, “Methods of treatment using TLR7 and/or TLR9 inhibitors” (Dynavax Technologies Corporation, priority 2010, dated 2015)

What was measured:
PDC = settings: in vitro, with GC
TLR7 = biological target: T1, TLR7 (Mus musculus, UniProt P58681); test: Tape stripping in TLR9-deficient mice; assay type: in vivo; settings: 100 μg sc, 24 hr
T1 construct: endogenous in cells; host or cells: primary splenocytes of BALB/c mice
T1 sequence (P58681 27-1050): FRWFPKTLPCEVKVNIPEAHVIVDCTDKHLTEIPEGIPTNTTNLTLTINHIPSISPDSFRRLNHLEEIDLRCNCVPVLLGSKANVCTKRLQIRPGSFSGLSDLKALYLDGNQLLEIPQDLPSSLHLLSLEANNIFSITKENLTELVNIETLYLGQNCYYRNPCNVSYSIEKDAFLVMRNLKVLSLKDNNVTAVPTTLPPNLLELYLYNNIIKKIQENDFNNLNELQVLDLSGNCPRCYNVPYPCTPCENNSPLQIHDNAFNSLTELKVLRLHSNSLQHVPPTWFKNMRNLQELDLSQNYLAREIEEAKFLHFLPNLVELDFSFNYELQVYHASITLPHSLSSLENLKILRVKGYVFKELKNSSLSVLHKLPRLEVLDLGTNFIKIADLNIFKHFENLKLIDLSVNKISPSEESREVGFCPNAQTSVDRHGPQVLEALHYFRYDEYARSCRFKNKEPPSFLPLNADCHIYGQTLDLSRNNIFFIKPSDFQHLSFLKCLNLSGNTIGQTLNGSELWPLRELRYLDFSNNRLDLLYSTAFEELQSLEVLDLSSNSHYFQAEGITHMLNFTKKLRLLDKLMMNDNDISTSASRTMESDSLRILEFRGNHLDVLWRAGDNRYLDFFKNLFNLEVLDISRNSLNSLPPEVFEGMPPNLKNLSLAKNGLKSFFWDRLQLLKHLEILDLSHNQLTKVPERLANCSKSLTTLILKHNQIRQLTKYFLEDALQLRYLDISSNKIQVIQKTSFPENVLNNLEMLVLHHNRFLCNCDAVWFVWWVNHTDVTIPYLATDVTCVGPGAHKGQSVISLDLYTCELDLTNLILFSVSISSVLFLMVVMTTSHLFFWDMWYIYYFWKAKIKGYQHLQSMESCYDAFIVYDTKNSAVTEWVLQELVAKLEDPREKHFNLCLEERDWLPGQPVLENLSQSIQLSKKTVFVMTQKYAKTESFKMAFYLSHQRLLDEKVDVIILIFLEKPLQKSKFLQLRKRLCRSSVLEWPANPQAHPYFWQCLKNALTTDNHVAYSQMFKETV
Protocol: (A) TLR7−/− (black histograms) and age matched WT C57/BL6 mice (grey histograms) were either left untreated (naive) or tape stripped to provoke inflammation. 24 hr later, skin biopsies were isolated and the levels of proinflammatory genes evaluated by Taqman. n=10 mice is shown (Mean±SEM); * p≦0.05. B) TLR9−/− were tape stripped (black histograms) or tape stripped immediately after treatment (s.c) with the dual TLR7 and TLR9 inhibitor IRS 954 (100 μg; sc) (dashed histograms). Age matched WT C57/BL6 mice were either left untreated (naïve; white histograms) or tape stripped (grey histograms). 24 hr later, skin biopsies were isolated and the levels of proinflammatory genes evaluated by Taqman. n=10 mice is shown (Mean±SEM); * p≦0.05.
C57BL/6 and 129 mice were purchased from Charles River Laboratories. (NZBxNZW)F1 female mice were purchased from Jackson Laboratories and used at 18-22 weeks of age. MyD88/KO and TLR9/KO mouse colonies were maintained at Simonsen Laboratories and used with age matched C57BL/6 wild type controls at 8-12 weeks of age. Tape stripping was performed after shaving the dorsal area (3×3 cm) using 10 strokes with duct tape. IRS was administered just before tape stripping SC at a distant site. […] Percentage of area with open lesions in (NZBxNZW)F1 and normal mice was evaluated with Nikon software NIS-elements.

Substance: 5′-TGCTCCTGGAGGGGTTGT-3′ (DNA, backbone not given here) [SEQ ID NO:42]
- GC sensitivity of TLR7/9-stimulated PDC (PDC): restored GC sensitivity to PDC
- inhibition of skin gene expression (TLR7): completed the inhibition
